These results are taken from patent US11071731B2, “Allosteric modulators of the mu opioid receptor” (Chiromics, LLC, priority 2017, dated 2021).

pEC50: −log10 of the molar value.

The target of test [1] is T1, mu opioid receptor (MOR) (Homo sapiens, UniProt P35372). Description: PathHunter β-arrestin recruitment assay, PAM mode with EC20 endomorphin-1. The format is cell-based. The note with it: for pEC50: read-out: β-arr. EC50. A digest of the protocol:
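β-Arrestin recruitment to the receptor was tracked by chemiluminescent β-galactosidase activity from complementing fragments (ED on receptor, EA on β-arrestin). Per-compound outputs were EC50 and percent maximal response.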

Test [2] concerns the target T1, mu opioid receptor (MOR). In words: Hit Hunter cAMP signaling assay (adenylyl cyclase inhibition), PAM mode with EC20 endomorphin-1. The test is classed as cell-based.
[3] abbreviates: maximal response for β-arrestin recruitment.
Setting [4] is: adenylyl cyclase inhibition, read-out: cAMP EC50.
Where [5] appears, read: maximal response for adenylyl cyclase inhibition.
[6] abbreviates: cAMP EC50, adenylyl cyclase inhibition.
Setting [7] is: maximal response, β-arrestin recruitment.
Where [8] appears, read: maximal response, adenylyl cyclase inhibition.

T1 sequence (P35372 whole entry, the tested form may be a part): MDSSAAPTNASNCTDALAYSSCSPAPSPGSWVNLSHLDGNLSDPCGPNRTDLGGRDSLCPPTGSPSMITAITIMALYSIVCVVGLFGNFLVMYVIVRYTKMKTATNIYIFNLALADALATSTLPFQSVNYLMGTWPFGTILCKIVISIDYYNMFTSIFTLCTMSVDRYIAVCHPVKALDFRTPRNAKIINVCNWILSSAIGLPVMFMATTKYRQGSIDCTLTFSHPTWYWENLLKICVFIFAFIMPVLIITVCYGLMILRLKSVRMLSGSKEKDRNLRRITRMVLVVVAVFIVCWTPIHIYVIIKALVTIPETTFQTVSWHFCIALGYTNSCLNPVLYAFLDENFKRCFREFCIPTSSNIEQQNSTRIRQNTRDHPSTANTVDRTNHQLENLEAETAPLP

For `COc1ccc(C2COCCN2c2nc(Cl)ncc2F)cc1Br` (racemic) [Compound 187], in test [1] (setting [3]), the “β-arr Max. Resp.” value is reported as “F (F represents a maximal response of > 60%)”. The pEC50 in test [1] (β-arrestin recruitment) and in test [2] (setting [4]) was less than 5.68 throughout. The “cAMP Max. Resp.” value in test [2] (setting [5]) is “E (E represents a maximal response of 40-60%)”.
As for `COc1ccc(C2CCCCN2S(=O)(=O)c2cccnc2Cl)cc1Br` (stereo not drawn) [compound 17], the “β-arr Max. Resp.” value in test [1] (setting [3]) is listed as “D (D represents a maximal response of < 40%)”. Also, the pEC50 in test [1] (β-arrestin recruitment) and in test [2] (setting [6]) was less than 5.68 each time. For the same compound, in test [2] (setting [5]), the “cAMP Max. Resp.” value is given as “D (D represents a maximal response of < 40%)”.
As for `COc1ccc(C2CCCCN2c2nc(Cl)ncc2F)cc1Br` (stereo not drawn) [compound 132], the “β-arr Max. Resp.” value in test [1] (setting [3]) was “F (F represents a maximal response of > 60%)”. For the same compound, the pEC50 was less than 5.68 in test [1] (β-arrestin recruitment) and 5.68 to 6.15 in test [2] (setting [6]). Besides, in test [2] (setting [5]), the “cAMP Max. Resp.” value was “D (D represents a maximal response of < 40%)”.
On to `O=S(=O)(c1ccc(Cl)cc1)N1CCCCC1c1ccc(F)cc1` (racemic) [compound 78], for which the “β-arr Max. Resp.” value in test [1] (setting [3]) is reported as “F (F represents a maximal response of > 60%)”. For the same compound, the results for the pEC50 in test [1] (β-arrestin recruitment) and in test [2] (setting [4]) were 5.68 to 6.15 and greater than 6.15, respectively. Moreover, the “cAMP Max. Resp.” value in test [2] (setting [5]) is listed as “E (E represents a maximal response of 40-60%)”.
Regarding `Cc1cc(C2CCCCN2S(=O)(=O)c2ccc(Cl)cc2)ccc1F` (racemic) [compound 67], the “β-arr Max. Resp.” value in test [1] (setting [3]) is “F (F represents a maximal response of > 60%)”. The pEC50 in test [1] (β-arrestin recruitment) is less than 5.68; in test [2] (setting [4]), 5.68 to 6.15. For the same compound, the “cAMP Max. Resp.” value in test [2] (setting [5]) was “E (E represents a maximal response of 40-60%)”.
On to `[2H]C1(c2cccc(C(F)(F)F)c2)C(F)CCCN1c1nc(Cl)ncc1F` (single isomer, unassigned) [compound 208], for which the “β-arr Max. Resp.” value in test [1] (setting [3]) is listed as “F (F represents a maximal response of > 60%)”. Further, in test [1] (β-arrestin recruitment), the pEC50 is less than 5.68. Besides, the “cAMP Max. Resp.” value in test [2] (setting [5]) is recorded as “F (F represents a maximal response of > 60%)”.
In the case of `Cc1ccc(C(F)(F)F)cc1C1CCCCN1c1nc(Cl)ncc1F` (stereo not drawn) [compound 134], in test [1] (setting [3]), the “β-arr Max. Resp.” value was “F (F represents a maximal response of > 60%)”. Moreover, the pEC50 in test [1] (β-arrestin recruitment) and in test [2] (setting [6]) was less than 5.68 throughout. Also, the “cAMP Max. Resp.” value in test [2] (setting [5]) is given as “D (D represents a maximal response of < 40%)”.
Regarding `[N-]=[N+]=Nc1ccc(N2CCCCC2c2ccc(F)c(Cl)c2)cc1` (stereo not drawn) [compound 462], the “β-arr Max. Resp.” value in test [1] (setting [7]) is recorded as “E (E represents a maximal response of 40-60%)”. Besides, the pEC50 in test [1] (β-arrestin recruitment) and in test [2] (setting [6]) was less than 5.68 each time. Further, in test [2] (setting [8]), the “cAMP Max. Resp.” value was “D (D represents a maximal response of < 40%)”.
In the case of `Fc1cnc(Cl)nc1N1CCCCC1c1ccccn1` (stereo not drawn) [compound 329], the “β-arr Max. Resp.” value in test [1] (setting [3]) is listed as “D (D represents a maximal response of < 40%)”. Besides, the pEC50 in test [1] (β-arrestin recruitment) and in test [2] (setting [6]) was greater than 6.15 each time. The “cAMP Max. Resp.” value in test [2] (setting [5]) is reported as “D (D represents a maximal response of < 40%)”.
As to `FC(F)(F)c1cccc(C2CCCCN2Cc2cccc(Cl)c2)n1` (stereo not drawn) [compound 170], in test [1] (setting [3]), the “β-arr Max. Resp.” value is given as “F (F represents a maximal response of > 60%)”. In addition, the pEC50 in test [1] (β-arrestin recruitment) is 5.68 to 6.15; in test [2] (setting [6]) it was greater than 6.15. For the same compound, the “cAMP Max. Resp.” value in test [2] (setting [5]) was “E (E represents a maximal response of 40-60%)”.
For `O=S(=O)(c1ccc(Cl)cc1)N1CCCCC1c1ccc2c(c1)OCO2` (stereo not drawn) [compound 44], the “allosteric activity for β-arrestin recruitment” value in test [1] (EC20 endomorphin-1 concentration of 4.5 nM) was “moderate positive allosteric activity”. In addition, the “signaling preference β-arrestin vs cAMP” value in test [1] (comparison of β-arrestin and cAMP assays) is “equivalent effects on β-arrestin recruitment and cAMP signaling”. For the same compound, the “β-arr Max. Resp.” value in test [1] (setting [3]) is reported as “F (F represents a maximal response of > 60%)”. Besides, the “β-arr. Max Resp.” value in test [1] (maximal response for β-arrestin recruitment, Table 3) stood at 99. Moreover, the pEC50 in test [1] (β-arrestin recruitment, Table 3) was 5.25; in test [1] (β-arrestin recruitment), less than 5.68; in test [2] (adenylyl cyclase inhibition, Table 3, read-out: cAMP EC50) it was 5.43; in test [2] (setting [4]), less than 5.68. In addition, the “allosteric activity for cAMP signaling” value in test [2] (EC20 endomorphin-1 concentration of 0.45 nM) is “moderate positive allosteric activity”. For the same compound, the “cAMP Max. Resp.” value in test [2] (setting [5]) is given as “E (E represents a maximal response of 40-60%)”. Further, the “cAMP Max Resp.” value in test [2] (maximal response for adenylyl cyclase inhibition, Table 3) was determined as 57.
With `Fc1cnc(N2CCOCC2)nc1N1CCCCC1c1cccc(C(F)(F)F)c1` (stereo not drawn) [compound 255], in test [1] (setting [3]), the “β-arr Max. Resp.” value is listed as “D (D represents a maximal response of < 40%)”. Also, the pEC50 in test [1] (β-arrestin recruitment) and in test [2] (setting [6]) was less than 5.68 in each case. Moreover, in test [2] (setting [5]), the “cAMP Max. Resp.” value was “F (F represents a maximal response of > 60%)”.
With `Cc1ccc(N2CCCCC2c2ccc(F)c(Cl)c2)cc1` (stereo not drawn) [compound 458], the “β-arr Max. Resp.” value in test [1] (setting [7]) was “E (E represents a maximal response of 40-60%)”. For the same compound, the negative logarithm of the EC50 (pEC50) in test [1] (β-arrestin recruitment) and in test [2] (setting [6]) was less than 5.68 in each case. For the same compound, the “cAMP Max. Resp.” value in test [2] (setting [8]) is on record as “D (D represents a maximal response of < 40%)”.
Turning to `COc1cc(C2CCCCN2c2nc(Cl)ncc2F)ccc1Br` (stereo not drawn) [compound 288], in test [1] (setting [3]), the “β-arr Max. Resp.” value is “F (F represents a maximal response of > 60%)”. Moreover, the pEC50 in test [1] (β-arrestin recruitment) and in test [2] (setting [6]) was less than 5.68 in each case. Moreover, the “cAMP Max. Resp.” value in test [2] (setting [5]) is listed as “E (E represents a maximal response of 40-60%)”.
On to `OCCNc1cccc(C2CCCCN2Cc2cc(Cl)ccc2F)n1` (stereo not drawn) [compound 141], for which the “β-arr Max. Resp.” value in test [1] (setting [3]) is listed as “D (D represents a maximal response of < 40%)”. The pEC50 in test [1] (β-arrestin recruitment) and in test [2] (setting [4]) was less than 5.68 each time. Also, the “cAMP Max. Resp.” value in test [2] (setting [5]) is reported as “D (D represents a maximal response of < 40%)”.
